According to the METLIN SMRT retention time set (Domingo-Almenara et al. 2019):

Assay: gradient 5% acetonitrile 3 min, to 50% in 2 min, to 85% in 15 min, held 3 min, 100 µL/min
Settings: column: Zorbax Extend-C18 2.1 x 50 mm; eluents: water / acetonitrile, 0.1% formic acid
Summary of the method: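 The system's dead and dwell volumes were 40 μL and 900 μL, with a Zorbax Extend-C18 column (2.1 × 50 mm, 1.8 μm) run at 100 μL/min in water and acetonitrile containing 0.1% formic acid each. Pure standards were analyzed in mixtures of ~100 molecules by HPLC–quadrupole time-of-flight mass spectrometry in positive and negative ionization mode. Retention time was assigned from computationally picked, manually inspected adduct peaks.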

| SMILES | RP-LC retention time [s] |
| --- | --- |
| O=C(NCCc1ccncc1)c1ccc2c(c1)ncn2-c1ccccc1 | 550 |
| O=c1c2c(ccn1Cc1nc(-c3ccsc3)no1)ccn2CC1CC1 | 980 |
| Cc1nc2c(NS(=O)(=O)c3ccc(F)cc3)cccn2n1 | 715 |
| CC(NC(=O)CCC(=O)N1CCc2c(c(C(=O)N3CCOCC3)nn2C)C1)c1ccccc1 (stereo not given) | 632 |
| CCOc1ccccc1C1C(C#N)=C(N)Oc2cc(C)n(CCN(C)C)c(=O)c21 (stereo not given) | 597 |
| COc1cccc(CNC(=O)N2CCN(c3cnn4c(C)nnc4c3)CC2)c1 | 658 |
| CC(C)CCNC(=O)N(C)Cc1nc2cc(C(=O)NC(C)C)ccc2n1C | 626 |
| CCOCc1nc(C2CCCN(C(=O)NC3CCCCC3)C2)no1 (stereo not given) | 804 |
| CCn1cc(-c2nc(CC(=O)Nc3ccc4c(c3)OCCO4)cs2)c2cccnc21 | 925 |
| COCc1nnc2n1CCC(NC(=O)C1CC=CC1)CC2 (stereo not given) | 587 |
| Cn1c(=O)n(Cc2ccc(Br)cc2F)c(=O)c2cnc(-c3cccnc3)nc21 | 968 |
| O=C(NCc1ccccc1)c1ccc(CN2CCN(Cc3ccc(F)cc3)C(=O)C2=O)cc1 | 774 |
| CCn1cc(S(=O)(=O)N2C[C@@H](COC)[C@H](c3ccncc3)C2)cn1 | 625 |
| COc1cccc(S(=O)(=O)N2C[C@@H]3C[C@H](NC(=O)c4cccs4)[C@H]2C3)c1 | 854 |
| COc1cccc(NC(=O)Cn2c(N)nc(C)cc2=O)c1 | 581 |
| O=C(Nc1ccc(-c2nnc3n2CCCC3)cc1)C1CCC1 | 622 |
| O=C(Cc1cccs1)N1CCC2(CC1)N=C(c1ccc(Cl)cc1)NO2 | 859 |
| O=C(Cn1cc(S(=O)(=O)Cc2ccccc2F)c2ccccc21)NCC1CCCO1 (stereo not given) | 806 |
| CC1CCCN(c2ccc(NC(=O)C(C)C)c(C(=O)O)c2)C1 (stereo not given) | 627 |
| O=C(CN1CCN(C(=O)Nc2ccc(Cl)cc2)CC1=O)NC1CC1 | 605 |

| SMILES | RP-LC retention time [s] |
| --- | --- |
| CC1=C(c2ccccc2)S(=O)(=O)N=C1N1CCCN(C(=O)NC(C)C)CC1 | 714 |
| CCOc1ccccc1NC(=O)N1CCN(c2ccc(=O)n(-c3ccccc3)n2)CC1 | 851 |
| O=C(NCCN1CCc2ccccc2C1)c1cn2nc(Cl)ccc2n1 | 618 |
| Cn1ncc2c(N3CCSCC3)nc(C(=O)NC3CC3)nc21 | 670 |
| CCN(CC)S(=O)(=O)c1ccc(-n2cnc(C(=O)Nc3cc(C(C)(C)C)ccc3O)c2)cc1 | 1060 |
| O=C(NCCCN1CCCC1=O)c1c(OCC2CC2)cc(=O)n2c1CCCCC2 | 602 |
| CN1CCC(NC(=O)c2ncoc2-c2ccccc2)CC1 | 602 |
| COc1ccc(C2Cn3nnc(-c4nc(-c5ccc(C(F)(F)F)cc5)no4)c3CO2)cc1 (stereo not given) | 1270 |
| COc1ncccc1C(=O)NCc1nnc(C)o1 | 579 |
| COc1cccc(CNC(=O)C2CCN(C(=O)C3Sc4ccccc4NC3=O)CC2)c1 (stereo not given) | 725 |
| O=C(c1ccc2cc[nH]c2c1)N1CCCN(c2cc(-c3ccc(Cl)cc3)[nH]n2)CC1 | 770 |
| CN1C(=O)[C@H]2CN(Cc3ccc(F)cc3Cl)C[C@H]2C1=O | 642 |
| COc1cc(NC(=O)c2ccc(-c3ccc(Cl)cc3)o2)cc(OC)c1 | 1170 |
| CCN1C(=O)c2cccnc2Sc2cc(NC(=O)c3ccc(OC)c(F)c3)ccc21 | 836 |
| O=c1[nH]c2ccc(S(=O)(=O)Nc3cccc(C(F)(F)F)c3)cc2[nH]1 | 664 |
| CN(C(=O)c1cc2c(=O)oc3ccccc3c2n1C)c1cccc(Cl)c1 | 933 |
| Cc1ccc(-c2noc(-c3nc(Cc4ccccc4)no3)n2)cc1 | 1240 |
| CC(C)(C)c1csc(NC(=O)c2ccc3c(c2)OCCO3)n1 | 976 |
| CCn1ccc(C(=O)N2CCc3c(-c4ccc(OC)cc4)cccc3[C@H]2C)n1 | 966 |
| CNCc1ccc(-c2[nH]c3cc(F)cc4c3c2CCNC4=O)cc1 | 642 |

| SMILES | RP-LC retention time [s] |
| --- | --- |
| COC(=O)c1cc(OCC(=O)Nc2ccc3c(c2)OCO3)c2cc(F)ccc2n1 | 778 |
| COc1ccccc1NC(=O)C1CC(=O)N(c2n[nH]c3cccc(F)c23)C1 (stereo not given) | 728 |
| N#Cc1cnc2nc(-c3ccccc3)nn2c1N | 663 |
| COc1ccc(Cl)cc1NC(=O)NCCc1ccc(N(C)C)cc1 | 637 |
| Cc1ccccc1NC(=O)Cc1cn2cc(Cl)ccc2n1 | 620 |
| COc1cccc(/C=N\NC(=O)C(C)SC(C)C(=O)N/N=C/c2cccc(OC)c2)c1 (stereo not given) | 769 |
| CNC(=O)c1cc2cc(Cl)ccc2[nH]1 | 741 |
| O=C(c1ccc2c(c1)OCO2)N(CCc1cscn1)Cc1cccnc1 | 602 |
| CC1CCc2[nH]nc(C(=O)N3CCN(C(C)C)CC3)c2C1 (stereo not given) | 588 |
| O=C(NCc1ccccc1)c1nc(Cn2c(=O)oc3ccccc32)no1 | 880 |
| O=C(O)c1cccnc1SC1CC(=O)N(c2ccc(F)c(Cl)c2)C1=O (stereo not given) | 741 |
| O=C(c1cn(-c2cc(N3CCSCC3)ncn2)cn1)N1CCN(c2ccccn2)CC1 | 624 |
| COc1ccc(NC(=O)N2[C@H]3CC[C@@H]2c2cnc(-c4ccccc4)nc2C3)cc1OC | 838 |
| Brc1ccc(-c2nnc(Cc3nc(-c4ccccc4)no3)o2)cc1 | 1100 |
| CCCC(NC(=O)c1ccc(OC)c(OC)c1)C(=O)Nc1nc2ccccc2[nH]1 (stereo not given) | 650 |
| COc1ccc(-c2cn3cccnc3n2)cc1NC(=O)c1cc(Br)ccc1Cl | 768 |
| Cn1cc(C(=O)NCc2cccc(C(F)(F)F)c2)c2cccnc21 | 818 |
| O=C(NCC1CCN(C2CCCC2)CC1)C(=O)Nc1ccc(OC(F)(F)F)cc1 | 611 |
| COc1ccc(NC(=O)c2cc(C(C)(C)C)n3nccc3n2)cc1OC | 1110 |
| CCN(C(=O)c1ccccc1)c1nc(-c2ccccc2)cs1 | 1230 |

The next lines start with the values.

| RP-LC retention time [s] | SMILES |
| --- | --- |
| 577 | Cc1nccn1-c1cc(N2CCC3(CC2)OCCO3)nc2ccnn12 |
| 661 | CC1=C(c2ccc(C)c(C)c2)S(=O)(=O)N=C1N1CCC(C(=O)NCCN2CCCC2)CC1 |
| 1290 | Cc1ccc(-c2noc(C3CCCN3S(=O)(=O)c3ccc(C)c(Cl)c3)n2)cc1 (stereo not given) |
| 632 | Cc1cccc(NC(=O)C2CCN(S(=O)(=O)c3cn(C(C)C)cn3)CC2)n1 |
| 601 | COc1cccc(NC(=O)C2(C)CCCCC(=O)N2)c1 (stereo not given) |
| 792 | Cc1ccc(NC(=O)N2CCC(OC3CCN(S(C)(=O)=O)CC3)CC2)cc1F |
| 902 | COc1ccccc1OCCC1CCN(S(=O)(=O)c2ccc3c(c2)C(C)(C)C(=O)N3)C1 (stereo not given) |
| 982 | Cc1nc(Cn2cccc2C(=O)Nc2ccc(C(C)C)cc2)no1 |
| 673 | Cc1nc2cccnc2n1C1CCN(C(=O)Nc2cccc(Br)c2)CC1 |
| 801 | COc1ccc(CC(=O)N2CCCC2c2nc(-c3ccc(OC)c(OC)c3)no2)cc1OC (stereo not given) |
| 1140 | Cc1nc(C2(C)CCN(S(=O)(=O)c3c(C)c(C)cc(C)c3C)CC2)no1 |
| 1030 | O=C(Nc1ccccc1)N1CCCC1c1nc(-c2cccc(Cl)c2)no1 (stereo not given) |
| 857 | CCCNC(=O)Cn1cnc2sc(C(=O)NC3CCCC(C)C3C)c(C)c2c1=O (stereo not given) |
| 867 | Cc1nn2c(CNS(=O)(=O)c3ccc(F)cc3F)c(-c3ccccc3)nc2s1 |
| 683 | CCn1cnc2cc(-c3noc(C(C)NS(=O)(=O)c4ccc(C)cc4)n3)ccc21 (stereo not given) |
| 735 | Cc1cc(F)ccc1NC(=O)C1CCc2nc(N3CCOCC3)ncc2C1 (stereo not given) |
| 598 | Cc1ccc(Nc2c(C(=O)N3CCOCC3)cnc3nc(C)ccc23)cc1 |
| 969 | Cc1ccc(C)c(NC(=O)CN2C(=O)C(C(=O)N3CCCC3)Sc3ccccc32)c1 (stereo not given) |
| 886 | COc1ccc(-c2noc(-c3nn(-c4ccc(C)c(C)c4)ccc3=O)n2)cc1OC |
| 715 | Cc1ccc(NS(=O)(=O)c2cc(-c3[nH]ncc3C(=O)N3CCCC3)oc2C)cc1 |
| 905 | CCCCN(CCCC)C(=O)C1CCN(S(=O)(=O)c2ccc3c(c2)CCCC(=O)N3)CC1 |
| 1040 | Cc1cc(S(=O)(=O)N2CCC(OCc3noc(C4CCCO4)n3)CC2)ccc1Cl (stereo not given) |
| 1190 | CCCn1ccc2oc(C)c(C(=O)NC(C)c3ccc(C)cc3C)c2c1=O (stereo not given) |
| 1000 | Cc1nn(-c2ccccc2)c(C)c1S(=O)(=O)N1CCC(C(=O)Nc2ccc(F)cc2Cl)CC1 |
| 1170 | CCC(C)NC(=O)Cn1nc(-c2nc(-c3cccc(C)c3)no2)c2ccccc21 (stereo not given) |
| 1260 | Cc1cccc(N2CCN(Cc3nc(-c4ccc(N5CCCC(C)C5)nc4)no3)CC2)c1C (stereo not given) |
| 896 | COC(=O)c1cc2c(=O)n(-c3nccs3)ccc2nc1C |
| 1030 | Cc1nc2cc(-c3noc(-c4ccc(F)cc4)n3)ccc2n(C)c1=O |
| 943 | COc1cccc(Cn2nc3c(S(=O)(=O)N4CCc5ccccc5C4)cccn3c2=O)c1 |
| 652 | Cc1cccc(NS(=O)(=O)c2cc3n(c2)CCCNC3=O)c1 |
